Measurements from ChEMBL document CHEMBL4346666, “Synthesis, mitochondrial localization of fluorescent derivatives of cinnamamide as anticancer agents” (Eur J Med Chem, 2019).
Calls of active or inactive are those of the source. The rule behind the calls is not given here.

How the values were obtained:
HL-60 [1] = experiment: Cytotoxicity against human HL60 cells assessed as reduction in cell viability measured after 48 hrs in presence of ROS scavenger N-acetyl-L-cysteine and VE by MTT assay; format: functional, cell-based
HL-60 [2] = experiment: Induction of ROS generation in human HL60 cells after 6 hrs by DCFH-DA probe based flow cytometry analysis; format: functional, cell-based
[3] = Drug uptake in human HL60 cells by flow cytometry; format: ADME, cell-based; conditions: hl-60
[4] = Drug uptake in human HL60 cells at 20 uM measured after 0.5 hrs by spectrofluorimetric analysis relative to PBMC cells; format: ADME, cell-based; conditions: hl-60, 0.5 h
[5] = Drug uptake in human HL60 cells at 20 uM measured after 1.5 hrs by spectrofluorimetric analysis relative to PBMC cells; format: ADME, cell-based; conditions: hl-60, 1.5 h
HepG2 = experiment: Cytotoxicity against human HepG2 cells assessed as cell viability at 20 uM measured after 48 hrs by MTT assay relative to control; format: functional; conditions: HepG2, 48 h, read-out: Activity
HeLa = experiment: Cytotoxicity against human HeLa cells assessed as cell viability at 20 uM measured after 48 hrs by MTT assay relative to control; format: functional; conditions: read-out: Activity
MCF7 = experiment: Cytotoxicity against human MCF7 cells assessed as cell viability at 20 uM measured after 48 hrs by MTT assay relative to control; format: functional; conditions: MCF7, 48 h, read-out: Activity
HL-60 [6] = experiment: Cytotoxicity against human HL60 cells assessed as cell viability at 20 uM measured after 48 hrs by MTT assay relative to control; format: functional; conditions: HL-60, 48 h, read-out: Activity
HL-60 [7] = experiment: Cytotoxicity against human HL60 cells assessed as reduction in cell viability measured after 48 hrs by MTT assay; format: functional, cell-based; conditions: HL-60, 48 h
PBMC = experiment: Cytotoxicity against human PBMC assessed as reduction in cell viability measured after 48 hrs by MTT assay; format: cell-based
[8] = Drug localization in mitochondria of human HL60 cells at 1 uM measured after 30 mins by […] dye-based confocal microscopy; format: ADME; conditions: hl-60, 0.5 h
[9] = Drug localization in mitochondria of human HepG2 cells at 1 uM measured after 30 mins by […] dye-based confocal microscopy; format: ADME; conditions: hepg2, 0.5 h
HL-60 [10] = experiment: Induction of mitochondrial dysfunction in human HL60 cells assessed as decrease in mitochondrial membrane potential at 10 uM measured after 48 hrs by TMRE probe-based flow cytometry relative to control; format: functional
HL-60 [11] = experiment: Induction of mitochondrial dysfunction in human HL60 cells assessed as decrease in mitochondrial membrane potential at 15 uM measured after 48 hrs by TMRE probe-based flow cytometry relative to control; format: functional
HL-60 [12] = experiment: Induction of mitochondrial dysfunction in human HL60 cells assessed as decrease in mitochondrial membrane potential at 20 uM measured after 48 hrs by TMRE probe-based flow cytometry relative to control; format: functional
HL-60 [13] = experiment: Induction of cell cycle arrest in human HL60 cells assessed as accumulation at S-phase at 10 uM after 48 hrs by propidium iodide staining based flow cytometry (reference value: 14.88%); format: functional
HL-60 [14] = experiment: Induction of cell cycle arrest in human HL60 cells assessed as accumulation at S phase at 15 uM after 48 hrs by propidium iodide staining based flow cytometry (reference value: 14.88%); format: functional
HL-60 [15] = experiment: Induction of cell cycle arrest in human HL60 cells assessed as accumulation at S-phase at 20 uM after 48 hrs by propidium iodide staining-based flow cytometry (reference value: 14.88%); format: functional
HL-60 [16] = experiment: Induction of cell cycle arrest in human HL60 cells assessed as accumulation at sub G0/G1 phase at 10 uM after 48 hrs by propidium iodide staining based flow cytometry (reference value: 0%); format: functional
HL-60 [17] = experiment: Induction of cell cycle arrest in human HL60 cells assessed as accumulation at sub G0/G1 phase at 15 uM after 48 hrs by propidium iodide staining based flow cytometry (reference value: 0%)l; format: functional
HL-60 [18] = experiment: Induction of cell cycle arrest in human HL60 cells assessed as accumulation at sub G0/G1 phase at 20 uM after 48 hrs by propidium iodide staining based flow cytometry (reference value: 0%); format: functional
[19] = Binding affinity to cysteamine residue assessed as hypochromic effect at 20 uM incubated for up to 1 hr by UV-Vis absorption spectrophotometric method
HL-60 [20] = experiment: Induction of cell cycle arrest in human HL60 cells assessed as accumulation at G0/G1 phase at 10 uM after 48 hrs by propidium iodide staining based flow cytometry (reference value: 83.52%); format: functional
HL-60 [21] = experiment: Induction of cell cycle arrest in human HL60 cells assessed as accumulation at G0/G1 phase at 15 uM after 48 hrs by propidium iodide staining based flow cytometry (reference value: 83.52%); format: functional
HL-60 [22] = experiment: Induction of cell cycle arrest in human HL60 cells assessed as accumulation at G0/G1 phase at 20 uM after 48 hrs by propidium iodide staining based flow cytometry (reference value: 83.52%); format: functional
HL-60 [23] = experiment: Induction of cell cycle arrest in human HL60 cells assessed as accumulation at G2/M phase at 10 uM after 48 hrs by propidium iodide staining based flow cytometry (reference value: 1.60%); format: functional
HL-60 [24] = experiment: Induction of cell cycle arrest in human HL60 cells assessed as accumulation at G2/M phase at 15 uM after 48 hrs by propidium iodide staining based flow cytometry (reference value: 1.60%); format: functional
HL-60 [25] = experiment: Induction of cell cycle arrest in human HL60 cells assessed as accumulation at G2/M phase at 20 uM after 48 hrs by propidium iodide staining based flow cytometry (reference value: 1.60%); format: functional
HL-60 [26] = experiment: Induction of apoptosis in human HL60 cells assessed as early apoptotic cells at 10 uM after 48 hrs by Annexin-V-FITC/propidium iodide staining based flow cytometry (reference value: 0.71%); format: functional
HL-60 [27] = experiment: Induction of apoptosis in human HL60 cells assessed as early apoptotic cells at 15 uM after 48 hrs by Annexin-V-FITC/propidium iodide staining based flow cytometry (reference value: 0.71%); format: functional
HL-60 [28] = experiment: Induction of apoptosis in human HL60 cells assessed as early apoptotic cells at 20 uM after 48 hrs by Annexin-V-FITC/propidium iodide staining based flow cytometry (reference value: 0.71%); format: functional
HL-60 [29] = experiment: Induction of apoptosis in human HL60 cells assessed as late apoptotic cells or necrotic cells at 10 uM after 48 hrs by Annexin-V-FITC/propidium iodide staining based flow cytometry (reference value: 0.39%); format: functional
HL-60 [30] = experiment: Induction of apoptosis in human HL60 cells assessed as late apoptotic cells or necrotic cells at 15 uM after 48 hrs by Annexin-V-FITC/propidium iodide staining based flow cytometry (reference value: 0.39%); format: functional
HL-60 [31] = experiment: Induction of apoptosis in human HL60 cells assessed as late apoptotic cells or necrotic cells at 20 uM after 48 hrs by Annexin-V-FITC/propidium iodide staining based flow cytometry (reference value: 0.39%); format: functional
[32] = Drug uptake in human HL60 cells at 20 uM measured after 3 hrs by spectrofluorimetric analysis relative to PBMC cells; format: ADME, cell-based; conditions: hl-60, 3 h
HL-60 [33] = experiment: Induction of apoptosis in human HL60 cells assessed as increase in late apoptotic or necrotic cells after 48 hrs by Annexin-V-FITC/propidium iodide staining based flow cytometry relative to control; format: functional, cell-based
[34] = Binding affinity to cysteamine residue at 1:1 to 5:1 stoichiometric ratio of cysteamine to compound incubated for up to 1 hr by UV-Vis absorption spectrophotometric method
[35] = Binding affinity to cysteamine residue by ESI-MS analysis
HL-60 [36] = experiment: Cell cycle arrest in human HL60 cells assessed as decrease in accumulation at G2/M phase after 48 hrs by propidium iodide staining based flow cytometry; format: functional
HL-60 [37] = experiment: Cell cycle arrest in human HL60 cells assessed as decrease in accumulation at S phase after 48 hrs by propidium iodide staining based flow cytometry; format: functional

Compound: CCN(CC)c1ccc2cc(C(=O)NCCNC(=O)/C(=C/c3cc(OC)c(OC)c(OC)c3)c3ccc(OC)c(OC)c3)c(=O)oc2c1
- Activity (HL-60 [1]): inactive
- Activity (HL-60 [2]): Dose-dependent effect
- Drug uptake [3]: Tde and Dose-dependent effect
- fold change (FC) [4]: 4.2
- fold change (FC) [5]: 4.5
- viability at 20 µM (HepG2): 56.4%
- viability at 20 µM (HeLa): 53.8%
- viability at 20 µM (MCF7): 66.5%
- viability at 20 µM (HL-60 [6]): 25.8%
- IC50 (HL-60 [7]): 9.1 µM
- IC50 (PBMC): > 50 µM
- Drug uptake [8]: Active
- Drug uptake [9]: Active
- fold change (FC) (HL-60 [10]): 0.76
- fold change (FC) (HL-60 [11]): 0.46
- fold change (FC) (HL-60 [12]): 0.29
- Activity (HL-60 [13]): 19.94%
- Activity (HL-60 [14]): 35.43%
- Activity (HL-60 [15]): 55.59%
- Activity (HL-60 [16]): 12.84%
- Activity (HL-60 [17]): 24.1%
- Activity (HL-60 [18]): 21.44%
- Activity [19]: Active
- Activity (HL-60 [20]): 65.71%
- Activity (HL-60 [21]): 24.15%
- Activity (HL-60 [22]): 2.69%
- Activity (HL-60 [23]): 14.35%
- Activity (HL-60 [24]): 40.42%
- Activity (HL-60 [25]): 41.72%
- Activity (HL-60 [26]): 2.15%
- Activity (HL-60 [27]): 6.06%
- Activity (HL-60 [28]): 3.75%
- Activity (HL-60 [29]): 16.3%
- Activity (HL-60 [30]): 38%
- Activity (HL-60 [31]): 70.2%
- fold change (FC) [32]: 8.9
- Activity (HL-60 [33]): Dose-dependent effect
- Activity [34]: Active
- Activity [35]: Active
- Activity (HL-60 [36]): Dose-dependent effect
- Activity (HL-60 [37]): Dose-dependent effect
